Patent US12122763B2, “Substituted piperidines for androgen receptor degradation” (UBIX THERAPEUTICS, INC., priority 2020, dated 2024)

Assays:
Format in all cases: cell-based
T877A AR mutant = T877A AR mutant (Homo sapiens, UniProt P10275, T878A); test: Degradation of AR mutant T877A; details: at a concentration of 100 nM
Source text: On the other hand, the compounds of the present invention have excellent degradation activity against AR mutants (T877A, M896V, F876L, H874Y, L702H, W741C, etc.). Since resistance to existing anti-androgen receptor drugs can be caused by AR mutation, the excellent AR mutant-degrading activity of the compounds of the present invention can help overcome resistance to existing drugs.

[1] = molecular target: T1, Androgen Receptor (AR) protein (Homo sapiens, UniProt P10275, T878A); test: Androgen Receptor (AR) protein degradation assay in LNCaP cells, western blotting; details: 20 h; for inhibition at 0.01 µM: 0.01 μM compound; for inhibition at 0.1 µM: 0.1 μM compound; for inhibition at 1 µM: 1 μM compound
T1 construct: endogenous in cells; host or cells: LNCaP
T1 sequence (P10275 whole entry T878A): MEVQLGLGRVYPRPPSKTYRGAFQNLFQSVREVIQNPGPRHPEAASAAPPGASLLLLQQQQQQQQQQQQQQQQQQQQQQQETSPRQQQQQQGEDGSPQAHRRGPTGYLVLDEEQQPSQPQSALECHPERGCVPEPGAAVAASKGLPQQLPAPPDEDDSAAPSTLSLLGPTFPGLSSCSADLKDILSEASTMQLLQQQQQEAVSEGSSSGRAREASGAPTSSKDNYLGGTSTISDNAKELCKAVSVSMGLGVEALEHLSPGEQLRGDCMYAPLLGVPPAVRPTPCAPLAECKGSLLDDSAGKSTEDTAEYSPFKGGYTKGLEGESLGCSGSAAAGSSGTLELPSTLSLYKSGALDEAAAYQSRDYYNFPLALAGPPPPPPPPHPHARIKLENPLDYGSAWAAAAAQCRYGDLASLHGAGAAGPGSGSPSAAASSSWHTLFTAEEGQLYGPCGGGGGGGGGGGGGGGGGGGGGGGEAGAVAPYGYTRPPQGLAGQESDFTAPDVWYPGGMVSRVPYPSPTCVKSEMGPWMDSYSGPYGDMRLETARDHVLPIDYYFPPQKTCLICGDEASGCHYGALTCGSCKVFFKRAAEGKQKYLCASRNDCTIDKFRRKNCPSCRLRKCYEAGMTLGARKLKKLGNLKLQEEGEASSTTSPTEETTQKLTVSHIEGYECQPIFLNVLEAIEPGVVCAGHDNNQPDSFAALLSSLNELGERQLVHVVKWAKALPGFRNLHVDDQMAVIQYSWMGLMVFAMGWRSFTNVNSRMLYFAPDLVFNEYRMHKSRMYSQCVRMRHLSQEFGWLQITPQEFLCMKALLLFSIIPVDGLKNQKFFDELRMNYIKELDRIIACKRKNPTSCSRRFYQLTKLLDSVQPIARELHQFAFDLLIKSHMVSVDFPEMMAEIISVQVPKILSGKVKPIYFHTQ
T1 sequence (Q96SW2 whole entry partner): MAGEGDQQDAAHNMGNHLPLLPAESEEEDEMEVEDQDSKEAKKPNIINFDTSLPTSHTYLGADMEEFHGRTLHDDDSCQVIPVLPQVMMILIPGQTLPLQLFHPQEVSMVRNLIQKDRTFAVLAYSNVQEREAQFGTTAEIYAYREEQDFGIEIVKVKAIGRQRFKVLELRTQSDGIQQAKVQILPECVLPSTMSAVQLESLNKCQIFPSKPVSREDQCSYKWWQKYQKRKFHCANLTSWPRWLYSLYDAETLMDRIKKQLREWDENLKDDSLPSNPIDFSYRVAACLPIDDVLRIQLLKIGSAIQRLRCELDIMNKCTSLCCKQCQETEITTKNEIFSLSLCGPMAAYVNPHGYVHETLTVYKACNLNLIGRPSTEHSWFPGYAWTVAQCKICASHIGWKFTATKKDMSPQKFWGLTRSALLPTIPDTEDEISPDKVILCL
How it was run: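 AR protein level was detected by western blot (ECL) against GAPDH or β-actin controls, with 8 μg lysate protein loaded per lane after BCA quantification. Lysates came from LNCaP cells exposed to test compound for 20 h, following 3 days of growth in RPMI/10% FBS.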

AR-V7 = molecular target: T2, AR-V7 (Homo sapiens, UniProt P10275); test: Reduction of expression of AR splicing variant AR-V7; details: at a concentration of 100 nM
T2 sequence (P10275 1-644 isoform P10275-3): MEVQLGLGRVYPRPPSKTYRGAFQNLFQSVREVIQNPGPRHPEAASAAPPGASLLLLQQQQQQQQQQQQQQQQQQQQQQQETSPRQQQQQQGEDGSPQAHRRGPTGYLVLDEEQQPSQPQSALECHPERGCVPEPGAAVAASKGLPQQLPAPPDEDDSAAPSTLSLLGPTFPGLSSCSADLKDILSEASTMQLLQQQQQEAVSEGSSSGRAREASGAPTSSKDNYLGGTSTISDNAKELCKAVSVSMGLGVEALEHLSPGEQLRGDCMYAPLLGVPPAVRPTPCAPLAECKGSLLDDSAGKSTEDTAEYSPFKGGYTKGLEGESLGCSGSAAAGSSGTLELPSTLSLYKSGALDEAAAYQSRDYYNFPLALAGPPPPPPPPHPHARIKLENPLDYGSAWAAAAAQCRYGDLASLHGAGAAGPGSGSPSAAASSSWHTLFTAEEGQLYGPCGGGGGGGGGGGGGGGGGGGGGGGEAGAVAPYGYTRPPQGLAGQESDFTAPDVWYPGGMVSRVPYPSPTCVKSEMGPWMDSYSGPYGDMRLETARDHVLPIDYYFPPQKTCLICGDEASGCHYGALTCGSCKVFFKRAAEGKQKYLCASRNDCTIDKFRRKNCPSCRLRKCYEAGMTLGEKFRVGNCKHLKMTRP
Source text: In addition, another mechanism by which resistance to existing treatments occurs is the expression of AR splicing variants (eg, AR-V7). The compounds of the present invention are excellent in reducing the expression of these variants (eg, AR-V7), and thus have a better anti-proliferative effect in AR-V7 positive prostate cancer cells. For example, the compounds of Examples 6 and 169 of the present disclosure inhibited the expression of AR-V7 by 87% and 48%, respectively, at a concentration of 100 nM.

Chain of T877A AR mutant (P10275 whole entry T878A): as the sequence (P10275 whole entry T878A) above
Chain of T877A AR mutant (Q96SW2 whole entry partner): as the sequence (Q96SW2 whole entry partner) above

SMILES | degradation activity for the T877A AR mutant (T877A AR mutant) | inhibition at 0.01 µM [1] | inhibition at 0.1 µM [1] | inhibition at 1 µM [1] | inhibition at 10 µM ([1]; 10 μM compound) | inhibited the expression of AR-V7 (AR-V7)
N#Cc1ccc(N2CCC(C(=O)Nc3ccc(N4CCC(CN5CC6(CCN(c7ccc8c(c7)C(=O)N(C7CCC(=O)NC7=O)C8=O)CC6)C5)CC4)cn3)CC2)cc1C(F)(F)F (stereo not shown) [Example 49, 1-(4-cyano-3-(trifluoromethyl)phenyl)-N-(5-(4-((7-(2-(2,6-dioxopiperidin-3-yl)-1,3-dioxoisoindolin-5-yl)-2,7-diazaspiro[3.5]nonan-2-yl)methyl)piperidin-1-yl)pyridin-2-yl)piperidine-4-carboxamide] | 46% | 68% | 98% | 99% | 99% | –
N#Cc1ccc(N2CCC(C(=O)Nc3ccc(OC4CCN(CC5CCN(c6ccc7c(c6)C(=O)N(C6CCC(=O)NC6=O)C7=O)CC5)CC4)cn3)CC2)cc1C(F)(F)F (stereo not shown) [Example 169, 1-(4-cyano-3-(trifluoromethyl)phenyl)-N-(5-((1-((1-(2-(2,6-dioxopiperidin-3-yl)-1,3-dioxoisoindolin-5-yl)piperidin-4-yl)methyl)piperidin-4-yl)oxy)pyridin-2-yl)piperidine-4-carboxamide] | – | 85% | 99% | 99% | – | 48%
N#Cc1ccc(N2CCC(C(=O)Nc3ccc(OCC4CCN(CC5CCN(c6cc7c(cc6F)C(=O)N(C6CCC(=O)NC6=O)C7=O)CC5)CC4)cn3)CC2)cc1C(F)(F)F (stereo not shown) [Example 181, 1-(4-cyano-3-(trifluoromethyl)phenyl)-N-(5-((1-((1-(2-(2,6-dioxopiperidin-3-yl)-6-fluoro-1,3-dioxoisoindolin-5-yl)piperidin-4-yl)methyl)piperidin-4-yl)methoxy)pyridin-2-yl)piperidine-4-carboxamide] | – | 75% | 93% | 97% | – | –
N#Cc1ccc(N2CCC(C(=O)Nc3ccc(CC4CCN(CC5CCN(c6cc7c(cc6F)C(=O)N(C6CCC(=O)NC6=O)C7=O)CC5)CC4)cn3)CC2)cc1C(F)(F)F (stereo not shown) [Example 182, 1-(4-cyano-3-(trifluoromethyl)phenyl)-N-(5-((1-((1-(2-(2,6-dioxopiperidin-3-yl)-6-fluoro-1,3-dioxoisoindolin-5-yl)piperidin-4-yl)methyl)piperidin-4-yl)methyl)pyridin-2-yl)piperidine-4-carboxamide] | – | 72% | 96% | 98% | – | –
N#Cc1ccc(N2CCC(C(=O)Nc3ccc(OCC4CCN(CC5CN(c6ccc7c(c6)C(=O)N(C6CCC(=O)NC6=O)C7=O)C5)CC4)cn3)CC2)cc1C(F)(F)F (stereo not shown) [Example 183, 1-(4-cyano-3-(trifluoromethyl)phenyl)-N-(5-((1-((1-(2-(2,6-dioxopiperidin-3-yl)-1,3-dioxoisoindolin-5-yl)azetidin-3-yl)methyl)piperidin-4-yl)methoxy)pyridin-2-yl)piperidine-4-carboxamide] | – | 72% | 87% | 93% | – | –
CC1(CN2CCC(COc3ccc(NC(=O)C4CCN(c5ccc(C#N)c(C(F)(F)F)c5)CC4)nc3)CC2)CN(c2ccc3c(c2)C(=O)N(C2CCC(=O)NC2=O)C3=O)C1 (stereo not shown) [Example 184, 1-(4-cyano-3-(trifluoromethyl)phenyl)-N-(5-((1-((1-(2-(2,6-dioxopiperidin-3-yl)-1,3-dioxoisoindolin-5-yl)-3-methylazetidin-3-yl)methyl)piperidin-4-yl)methoxy)pyridin-2-yl)piperidine-4-carboxamide] | – | 72% | 91% | 97% | – | –
N#Cc1ccc(N2CCC(C(=O)Nc3ccc(OCC4CN(CC5CCN(c6ccc7c(c6)C(=O)N(C6CCC(=O)NC6=O)C7=O)CC5)C4)cn3)CC2)cc1C(F)(F)F (stereo not shown) [Example 185, 1-(4-cyano-3-(trifluoromethyl)phenyl)-N-(5-((1-((1-(2-(2,6-dioxopiperidin-3-yl)-1,3-dioxoisoindolin-5-yl)piperidin-4-yl)methyl)azetidin-3-yl)methoxy)pyridin-2-yl)piperidine-4-carboxamide] | – | 85% | 97% | 99% | – | –
CC1(COc2ccc(NC(=O)C3CCN(c4ccc(C#N)c(C(F)(F)F)c4)CC3)nc2)CN(CC2CCN(c3ccc4c(c3)C(=O)N(C3CCC(=O)NC3=O)C4=O)CC2)C1 (stereo not shown) [Example 186, 1-(4-cyano-3-(trifluoromethyl)phenyl)-N-(5-((1-((1-(2-(2,6-dioxopiperidin-3-yl)-1,3-dioxoisoindolin-5-yl)piperidin-4-yl)methyl)-3-methylazetidin-3-yl)methoxy)pyridin-2-yl)piperidine-4-carboxamide] | – | 66% | 94% | 96% | – | –
N#Cc1ccc(N2CCC(C(=O)Nc3ccc(OC4CCN(CC5CCN(c6ccc7c(c6)C(=O)N(C6CCC(=O)NC6=O)C7=O)CC5)CC4)nn3)CC2)cc1C(F)(F)F (stereo not shown) [Example 187, 1-(4-cyano-3-(trifluoromethyl)phenyl)-N-(6-((1-((1-(2-(2,6-dioxopiperidin-3-yl)-1,3-dioxoisoindolin-5-yl)piperidin-4-yl)methyl)piperidin-4-yl)oxy)pyridazin-3-yl)piperidine-4-carboxamide] | – | 63% | 90% | – | – | –
N#Cc1ccc(N2CCC(C(=O)Nc3ccc(CN4CCC(CN5CCN(c6cc7c(cc6F)C(=O)N(C6CCC(=O)NC6=O)C7=O)CC5)CC4)cn3)CC2)cc1C(F)(F)F (stereo not shown) [Example 188, 1-(4-cyano-3-(trifluoromethyl)phenyl)-N-(5-((4-((4-(2-(2,6-dioxopiperidin-3-yl)-6-fluoro-1,3-dioxoisoindolin-5-yl)piperazin-1-yl)methyl)piperidin-1-yl)methyl)pyridin-2-yl)piperidine-4-carboxamide] | – | 1% | 45% | – | – | –
N#Cc1ccc(N2CCC(C(=O)Nc3ccc(CCN4CCC(CN5CCN(c6cc7c(cc6F)C(=O)N(C6CCC(=O)NC6=O)C7=O)CC5)CC4)cn3)CC2)cc1C(F)(F)F (stereo not shown) [Example 189, 1-(4-cyano-3-(trifluoromethyl)phenyl)-N-(5-(2-(4-((4-(2-(2,6-dioxopiperidin-3-yl)-6-fluoro-1,3-dioxoisoindolin-5-yl)piperazin-1-yl)methyl)piperidin-1-yl)ethyl)pyridin-2-yl)piperidine-4-carboxamide] | – | 8% | 79% | – | – | –
N#Cc1ccc(N2CCC(C(=O)Nc3ccc(N4CC(CN5CCC(CN6CCN(c7ccc8c(c7)C(=O)N(C7CCC(=O)NC7=O)C8=O)CC6)CC5)C4)cn3)CC2)cc1C(F)(F)F (stereo not shown) [Example 190, 1-(4-cyano-3-(trifluoromethyl)phenyl)-N-(5-(3-((4-((4-(2-(2,6-dioxopiperidin-3-yl)-1,3-dioxoisoindolin-5-yl)piperazin-1-yl)methyl)piperidin-1-yl)methyl)azetidin-1-yl)pyridin-2-yl)piperidine-4-carboxamide] | – | -11% | 61% | – | – | –
N#Cc1ccc(N2CCC(C(=O)Nc3ccc(N4CC(CN5CCC(CN6CCN(c7cc8c(cc7F)C(=O)N(C7CCC(=O)NC7=O)C8=O)CC6)CC5)C4)cn3)CC2)cc1C(F)(F)F (stereo not shown) [Example 191, 1-(4-cyano-3-(trifluoromethyl)phenyl)-N-(5-(3-((4-((4-(2-(2,6-dioxopiperidin-3-yl)-6-fluoro-1,3-dioxoisoindolin-5-yl)piperazin-1-yl)methyl)piperidin-1-yl)methyl)azetidin-1-yl)pyridin-2-yl)piperidine-4-carboxamide] | – | 3% | 84% | – | – | –
N#Cc1ccc(N2CCC(C(=O)Nc3ccc(N4CCC(CCN5CCN(c6cc7c(cc6F)C(=O)N(C6CCC(=O)NC6=O)C7=O)CC5)CC4)cn3)CC2)cc1C(F)(F)F (stereo not shown) [Example 192, 1-(4-cyano-3-(trifluoromethyl)phenyl)-N-(5-(4-(2-(4-(2-(2,6-dioxopiperidin-3-yl)-6-fluoro-1,3-dioxoisoindolin-5-yl)piperazin-1-yl)ethyl)piperidin-1-yl)pyridin-2-yl)piperidine-4-carboxamide] | – | -11% | 15% | 67% | – | –
